What was measured:
[1] = 298.15 K, Ring tensiometer
[2] = xn = mol fraction of the nth substance listed; details: 298.15 K, Ring tensiometer

CC(C)O [propan-2-ol]
Details	surface tension liquid-gas [mN/m]
[1]	20.95

CC#N [acetonitrile]
Details	surface tension liquid-gas [mN/m]
[1]	27.76

CC#N [acetonitrile] + O
[2]
Details	surface tension liquid-gas [mN/m]
x2 = 0.2032	29.46
x2 = 0.4087	30.95
x2 = 0.5149	31.45
x2 = 0.6041	31.68
x2 = 0.7459	32.92
x2 = 0.8145	33.97
x2 = 0.8773	37.97
x2 = 0.8977	39.63
x2 = 0.905	40.54
x2 = 0.9484	49.39
x2 = 0.9702	55.92
x2 = 0.9851	62.36

CC(C)O [propan-2-ol] + O
[2]
Details	surface tension liquid-gas [mN/m]
x2 = 0.099	21.65
x2 = 0.2949	21.97
x2 = 0.5018	22.28
x2 = 0.5993	22.74
x2 = 0.7021	23.28
x2 = 0.8	24.37
x2 = 0.8502	25.04
x2 = 0.8991	26.64
x2 = 0.945	32.36
x2 = 0.9598	35.83
x2 = 0.9697	39.36

O [water]
Details	surface tension liquid-gas [mN/m]
[1]	72.09

CC#N [acetonitrile] + CC(C)O
[2]
Details	surface tension liquid-gas [mN/m]
x1 = 0.2001	21.05
x1 = 0.3621	21.55
x1 = 0.4885	22.15
x1 = 0.5398	22.44
x1 = 0.6001	22.88
x1 = 0.7	23.84
x1 = 0.8001	24.94
x1 = 0.8984	26.23
x1 = 0.9579	27.1
x1 = 0.9701	27.28
x1 = 0.9851	27.55

From the NIST ThermoML archive (doi:10.1021/je1001329)
